Among the data in ChEMBL document CHEMBL1126877, “Synthesis and anticonvulsant activities of alpha-heterocyclic alpha-acetamido-N-benzylacetamide derivatives” (J Med Chem, 1993) are ED50, TD50 and PI values, retold here.

The species named for data set [1] is Mus musculus. Nature of the data set: Effective dose required for maximal electroshock (MES)-induced seizures in mice. The class given is functional. A general note: Protection in the maximal electroshock model is a classic sign of anticonvulsant action.
The species named for data set [2] is Mus musculus. Nature of the data set: Effective dose required for maximal electroshock (MES)-induced seizures in mice in experiment 1. The class given is functional.
The species entered for data set [3] is Mus musculus. Nature of the data set: Effective dose required for maximal electroshock (MES)-induced seizures in mice in experiment 2. Format: functional.
The nature of data set [4]: (§1) Neurologic toxicity determined using horizontal screen test in mice. Format: organism-based. As to conditions: mouse, in vivo.
A short description of data set [5]: Protective index (TD50/ED50). Format: functional.
The species entered for data set [6] is Mus musculus. Described as §1. Format: organism-based. The following applies: in vivo.
Data set [7] can be described thus: Neurologic toxicity determined using horizontal screen test in mice in experiment 1. The class given is organism-based. As to conditions: mouse, in vivo.
Data set [8] in a line: Neurologic toxicity determined using horizontal screen test in mice in experiment 2. Format: organism-based. As to conditions: mouse, in vivo.
A short description of data set [9]: Neurologic toxicity determined using rotarod test in mice. The following applies: mouse, in vivo. Format: organism-based.

As a reminder, the ED50 is the dose that gives a 50% effect, or the effect in half of the subjects. For `CC(=O)NC(C(=O)NCc1ccccc1)c1c[nH]cn1` (centres undefined), the 50% effective dose (ED50) in the data set filed under Mus musculus [1] (Mus musculus, read-out: ED50) is above 100 mg/kg.
On the same count and under the same terms, the result for `CC(=O)NC(C(=O)NCc1ccc[n+]([O-])c1)c1ccco1` (centres undefined) reads around 30 mg/kg.
Still for that read-out and setting: the figure for `CC(=O)N[C@H](C(=O)NCc1ccc(C(F)(F)F)cc1)c1ccco1` is 22.8 mg/kg.
Turning to `CC(=O)NC(C(=O)NCc1ccccc1)c1ncon1` (centres undefined), the values for the ED50 in the data set listed under Mus musculus [2] and in the data set filed under Mus musculus [3] were above 100 mg/kg and below 300 mg/kg, respectively.
Consider `CC(=O)NC(C(=O)NCc1cccnc1)c1ccco1` (centres undefined), for which the ED50 in the data set listed under Mus musculus [1] (Mus musculus, read-out: ED50) was around 30 mg/kg.
A word on the TD50: it is the 50% point of the dose-response relation for the toxic effect studied. Read a high TD50 as lower toxicity. In data set [4], `CC(=O)NC(C(=O)NCc1ccccc1)c1ccsc1` (centres undefined) had a TD50 above 100 mg/kg.
As to `CC(=O)NC(C(=O)NCc1ccccc1)c1ccco1` (centres undefined), in [4], the TD50 is around 40 mg/kg. The PI in [5] was determined as 3.9.
With `CC(=O)N[C@@H](C(=O)NCc1ccccc1)c1ccco1`, in the data set listed under Mus musculus [1] (Mus musculus, read-out: ED50), the 50% effective dose (ED50) came to 3.3 mg/kg. The compound further yielded a PI in data set [5] of 7.2.
As to `CC(=O)NC(C(=O)NCc1ccccc1)n1cccn1` (centres undefined), in the data set filed under Mus musculus [1] (Mus musculus, read-out: ED50), the ED50 was found to be 16.5 mg/kg.
For the compound `CC(=O)N[C@@H](C(=O)NCc1ccc(F)cc1)c1ccco1`, the ED50 in the data set filed under Mus musculus [1] (Mus musculus, read-out: ED50) stood at 3.5 mg/kg. Further, the TD50 in [4] is 14.4 mg/kg. This compound also had a PI in data set [5] of 4.1.
Consider `CC(=O)NC(C(=O)NCc1ccccc1)c1ncc[nH]1` (centres undefined), for which the median effective dose (ED50) in the data set filed under Mus musculus [1] (Mus musculus, read-out: ED50) is above 100 mg/kg.
On the same count and under the same terms, the figure for `CC(=O)NC(C(=O)NCc1ccccc1)n1cccc1` (centres undefined) is 80.2 mg/kg.
Compound `CC(=O)N[C@H](C(=O)NCc1ccccc1)c1ccco1` (stereo in doubt; (S)-4) registered an ED50 in the data set listed under Mus musculus [1] above 25 mg/kg. Also, the TD50 in the data set listed under Mus musculus [6] was above 200 mg/kg.
`CC(=O)NC(C(=O)NCc1ccccc1)C1CCCO1` (centres undefined): in the data set filed under Mus musculus [1] (Mus musculus, read-out: ED50), the 50% effective dose (ED50) amounted to 89.8 mg/kg.
Same read-out and setting: the figure for `CC(=O)N[C@H](C(=O)NCc1ccc(C)cc1)c1ccco1` is 43.6 mg/kg.
On to `CC(=O)NC(C(=O)NCc1ccccc1)c1nnn[nH]1` (centres undefined), for which the median effective dose (ED50) in the data set listed under Mus musculus [2] was above 30 mg/kg; in the data set filed under Mus musculus [3], below 100 mg/kg.
For the compound `C/C(S)=N\C(C(=O)NCc1ccccc1)c1ccco1` (centres undefined), the ED50 in the data set listed under Mus musculus [1] (Mus musculus, read-out: ED50) was found to be 18.4 mg/kg.
On to `CC(=O)NC(C(=O)NCc1ccccc1)c1ccc[nH]1` (centres undefined), for which the results for the TD50 in data set [7] and in data set [8] were above 30 mg/kg and below 100 mg/kg, respectively.
For the compound `C/C(S)=N/C(/C(S)=N/Cc1ccccc1)c1ccco1` (centres undefined), the median effective dose (ED50) in the data set filed under Mus musculus [1] (Mus musculus, read-out: ED50) is above 100 mg/kg.
As to `CC(=O)NC(C(=O)NCc1ccccc1)c1cccs1` (centres undefined), the TD50 was above 30 mg/kg in data set [7] and below 100 mg/kg in data set [8].
Take `CC(=O)NC(C)(C(=O)NCc1ccccc1)c1ccco1` (centres undefined): the median effective dose (ED50) in the data set listed under Mus musculus [1] (Mus musculus, read-out: ED50) was above 300 mg/kg.
`CC(=O)NC(C(=O)NCc1ccccc1)n1cncn1` (centres undefined): the results for the ED50 in the data set listed under Mus musculus [2] and in the data set listed under Mus musculus [3] were above 30 mg/kg and below 100 mg/kg, respectively.
For the compound `CC(=O)NC(C(=O)NCc1ccncc1)c1ccco1` (centres undefined), the median effective dose (ED50) in the data set listed under Mus musculus [1] (Mus musculus, read-out: ED50) is above 100 mg/kg.
Same read-out and setting: the figure for `CC(=O)NC(C(=O)NCc1cc[n+]([O-])cc1)c1ccco1` (centres undefined) is above 100 mg/kg.
Consider `CC(=O)N[C@H](C(=O)NCc1ccccc1)c1ccco1` (stereo in doubt; 4) [listing 1 of 2 here], for which the PI in data set [5] is 3.9.
As to `CC(=O)NC(C(=O)NCc1ccccc1)n1cnnn1` (centres undefined), in the data set filed under Mus musculus [1] (Mus musculus, read-out: ED50), the median effective dose (ED50) was above 300 mg/kg.
In turn, `CC(=O)N[C@H](C(=O)NCc1ccccc1)c1ccco1` (stereo in doubt; 4) [listing 2 of 2 here] came in with an ED50 in the data set listed under Mus musculus [1] of 10.3 mg/kg. Also, the TD50 in the data set listed under Mus musculus [6] is ~ 40 mg kg-1.
In data set [4], `CC(=O)NC(C(=O)NCc1ccccc1)c1ccccc1` (centres undefined) came in with a TD50 above 40 mg/kg.
For the compound `CC(=O)NC(C(=O)NCc1ccccc1)c1ncco1` (centres undefined), in the data set filed under Mus musculus [1] (Mus musculus, read-out: ED50), the median effective dose (ED50) was 10.4 mg/kg. Moreover, the TD50 in data set [9] is 38.6 mg/kg. The compound further came in with a PI in data set [5] of 3.7.
With `CC(=O)NC(C(=O)NCc1ccccc1)c1nc[nH]n1` (centres undefined), the ED50 in the data set listed under Mus musculus [1] (Mus musculus, read-out: ED50) was above 100 mg/kg.
Regarding `CC(=O)NC(C(=O)NCc1ccccc1)n1ccnc1` (centres undefined), the median effective dose (ED50) in the data set listed under Mus musculus [1] (Mus musculus, read-out: ED50) was above 100 mg/kg.
Regarding `CC(=O)NC(C(=O)NCc1ccc(F)cc1)c1ccco1` (centres undefined), the PI in data set [5] came out at 11.3.
As to `CC(=O)NC(C(=O)NCc1ccccc1)c1nccs1` (centres undefined), the ED50 in the data set filed under Mus musculus [1] (Mus musculus, read-out: ED50) came out at 12.1 mg/kg. The TD50 in [9] was determined as 69.1 mg/kg. Also, the PI in data set [5] stood at 5.7.
For the compound `CC(=O)NC(C(=O)NNc1ccccn1)c1ccco1` (centres undefined), the ED50 in the data set listed under Mus musculus [1] (Mus musculus, read-out: ED50) is above 100 mg/kg.
